Earlier results, collected in PubChem BioAssay AID1259409 (Chemical Carcinogenesis Research Information System (CCRIS), 2018).

Test system: rodent chemically induced tumor inhibition, incidence and multiplicity
Test: CCRIS tumor inhibitor studies
Conditions: Carcinogen: 7,12-DIMETHYLBENZ[A]ANTHRACENE, 57-97-6, Dose [Inhibitor]: 0, Route [Inhibitor]: ORAL, Species: RAT, Strain/Sex: SPRAGUE-DAWLEY/FEMALE, Dose [Carcinogen]: 5 MG AT 50-53 DAYS OF AGE, Promoter: NONE USED

For `CC(C(=O)O)c1ccc2c(c1)[nH]c1ccc(Cl)cc12` (stereo unspecified), the “tumour outcome (control, treated, inhibition, significance)” value (0.02% IN 20% FAT DIET CONTAINING 0.5% LINOLEIC ACID BEGINNING 7 D POST CARCINOGEN DOSE AND CONTINUING FOR DURATION OF, Target Tissue: Type of Lesion: MAMMARY GLAND: ADENOCARCINOMA) is given as 56%, 52%, 7%, not calculated, the “tumour outcome (control, treated, inhibition, significance)” value (0.02% IN 20% FAT DIET CONTAINING 4% LINOLEIC ACID BEGINNING 7 D POST CARCINOGEN DOSE AND CONTINUING FOR DURATION OF S, Target Tissue: Type of Lesion: MAMMARY GLAND: ADENOCARCINOMA) is given as 53%, 61%, -15%, not calculated and the “tumour outcome (control, treated, inhibition, significance)” value (0.02% IN 20% FAT DIET CONTAINING 12% LINOLEIC ACID BEGINNING 7 D POST CARCINOGEN DOSE AND CONTINUING FOR DURATION OF, Target Tissue: Type of Lesion: MAMMARY GLAND: ADENOCARCINOMA) is given as 69%, 55%, 20%, not calculated. For the same molecule, the “tumour outcome (control, treated, inhibition, significance)” value (0.02% IN HIGH FAT DIET (20% CORN OIL) BEGINNING 7 D POST CARCINOGEN DOSE AND CONTINUING FOR DURATION OF STUDY (STUDY, Target Tissue: Type of Lesion: MAMMARY GLAND: ADENOCARCINOMA) was 88%, 91%, -3%, not calculated, the “tumour outcome (control, treated, inhibition, significance)” value (0.02% IN HIGH FAT DIET (20% CORN OIL) BEGINNING 7 D POST CARCINOGEN DOSE AND CONTINUING FOR DURATION OF STUDY (STUDY, Target Tissue: Type of Lesion: MAMMARY GLAND: TUMOR) was 47%, 56%, -19%, not calculated and the “tumour outcome (control, treated, inhibition, significance)” value (0.02% IN NORMAL FAT DIET (5% CORN OIL) BEGINNING 7 D POST CARCINOGEN DOSE AND CONTINUING FOR DURATION OF STUDY (STUDY, Target Tissue: Type of Lesion: MAMMARY GLAND: ADENOCARCINOMA) was 59%, 83%, -41%, not calculated.
